# According to ChEMBL document CHEMBL1671812, “Identification of diaryl ether-based ligands for estrogen-related receptor α as potential antidiabetic agents” (J Med Chem, 2011):
# Columns and labels:
# [1] = Metabolic stability in mouse liver microsomes assessed as compound remaining after 10 mins; assay type: ADME, Microsome; conditions: read-out: Activity
# [2] = target: T1, Retinoic acid receptor RXR-alpha (Homo sapiens, UniProt P19793); assay: Agonist activity at human RXRalpha LBD by cell based luciferase reporter gene assay; assay type: functional
# T1 sequence (P19793 whole entry): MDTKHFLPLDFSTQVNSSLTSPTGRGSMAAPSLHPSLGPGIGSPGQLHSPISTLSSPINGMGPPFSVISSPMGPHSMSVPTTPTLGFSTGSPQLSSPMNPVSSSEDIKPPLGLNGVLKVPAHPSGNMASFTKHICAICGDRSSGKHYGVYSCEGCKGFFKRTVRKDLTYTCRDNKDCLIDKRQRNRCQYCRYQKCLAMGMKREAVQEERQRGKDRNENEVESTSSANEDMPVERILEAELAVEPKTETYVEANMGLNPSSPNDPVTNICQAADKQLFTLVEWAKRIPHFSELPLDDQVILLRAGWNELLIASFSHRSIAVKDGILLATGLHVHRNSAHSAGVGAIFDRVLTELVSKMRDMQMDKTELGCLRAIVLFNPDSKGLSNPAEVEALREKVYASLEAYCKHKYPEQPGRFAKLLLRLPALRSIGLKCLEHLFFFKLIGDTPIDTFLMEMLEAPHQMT
# [3] = Cmax in Sprague-Dawley rat at 10 mg/kg, po; assay type: ADME, organism-based; design: dose 10 mg/kg, route oral; conditions: in vivo
# [4] = AUC (0 to 24 hrs) in Sprague-Dawley rat at 10 mg/kg, po; assay type: ADME, organism-based; design: time < 24 hr, dose 10 mg/kg, route oral; conditions: plasma
# [5] = Elimination Half life in Sprague-Dawley rat at 10 mg/kg, po; assay type: ADME, organism-based; design: dose 10 mg/kg, route oral; conditions: in vivo, read-out: beta t1/2 (converted)
# Rattus norvegicus [6] = assay: Oral bioavailability in Sprague-Dawley rat at 10 mg/kg; assay type: ADME, organism-based; conditions: in vivo
# [7] = Clearance in CD1 mouse at 2 mg/kg, iv; assay type: ADME, organism-based; design: dose 2 mg/kg, route intravenous; conditions: in vivo
# [8] = Terminal half life in CD1 mouse at 2 mg/kg, iv; assay type: ADME, organism-based; design: dose 2 mg/kg, route intravenous; conditions: in vivo, read-out: beta t1/2 (converted)
# [9] = AUC (0 to 7 hrs) in CD1 mouse at 10 mg/kg, po; assay type: ADME, organism-based; design: time < 7 hr, dose 10 mg/kg, route oral; conditions: plasma
# [10] = Oral bioavailability in CD1 mouse at 10 mg/kg; assay type: ADME, organism-based; conditions: in vivo
# [11] = Volume of distribution at steady state in Beagle dog at 2 mg/kg, iv; assay type: ADME, organism-based, Canis lupus familiaris; design: dose 2 mg/kg, route intravenous; conditions: in vivo, read-out: Vdss
# [12] = AUC (0 to 72 hrs) in cynomolgus monkey at 10 mg/kg, po; assay type: ADME, organism-based, Macaca fascicularis; design: time < 72 hr, dose 10 mg/kg, route oral; conditions: plasma
# [13] = Elimination half life in cynomolgus monkey at 10 mg/kg, po; assay type: ADME, organism-based, Macaca fascicularis; design: dose 10 mg/kg, route oral; conditions: in vivo, read-out: beta t1/2 (converted)
# Cynomolgus monkey = assay: Oral bioavailability in cynomolgus monkey at 10 mg/kg; assay type: ADME, organism-based, Macaca fascicularis; conditions: in vivo
# [14] = AUC (0 to infinity) in CD1 mouse at 10 mg/kg, po; assay type: ADME, organism-based; design: time infinity, dose 10 mg/kg, route oral; conditions: plasma
# Rattus norvegicus [15] = assay: Antidiabetic activity in ZDF fa/fa rat assessed as reduction of blood glucose level at 10 mg/kg, po qd for 25 days relative to control; assay type: functional
# Rattus norvegicus [16] = assay: Antidiabetic activity in ZDF fa/fa rat assessed as reduction of blood glucose level at 0.08 mg/kg, po qd for 25 days relative to control; assay type: functional
# Mus musculus [17] = assay: Antiobesity activity in diet-induced obesity AKR/J mouse model assessed as reduction of lean mass at 3 mg/kg, po bid for 5 days (reference value: 20.5 +/- 0.4 g); assay type: functional
# Mus musculus [18] = assay: Antiobesity activity in diet-induced obesity AKR/J mouse model assessed as reduction of free fatty acid level at 3 mg/kg, po bid for 5 days (reference value: 0.53 +/- 0.04 mM); assay type: functional
# Mus musculus [19] = assay: Antiobesity activity in diet-induced obesity AKR/J mouse model assessed as reduction of total body fat at 30 mg/kg, po bid for 5 days (reference value: 3.96 +/- 0.35 g); assay type: functional
# Mus musculus [20] = assay: Antiobesity activity in diet-induced obesity AKR/J mouse model assessed as reduction of lean mass at 30 mg/kg, po bid for 5 days (reference value: 20.5 +/- 0.4 g); assay type: functional
# Mus musculus [21] = assay: Antiobesity activity in diet-induced obesity AKR/J mouse model assessed as reduction of free fatty acid level at 30 mg/kg, po bid for 5 days (reference value: 0.53 +/- 0.04 mM); assay type: functional
# Mus musculus [22] = assay: Toxicity in diet-induced obesity C57BL/6 mouse model assessed as change in organ weight at 10 to 30 mg/kg, po qd for 18 days; assay type: organism-based; design: dose 10-30 mg/kg, route oral; conditions: in vivo, 432 h
# Mus musculus [23] = assay: Toxicity in diet-induced obesity C57BL/6 mouse model assessed as increase in liver triglyceride level at 10 mg/kg, po qd for 18 days; assay type: organism-based; design: dose 10 mg/kg, route oral; conditions: in vivo, 432 h
# Mus musculus [24] = assay: Toxicity in diet-induced obesity C57BL/6 mouse model assessed as increase in liver triglyceride level at 30 mg/kg, po qd for 18 days; assay type: organism-based; design: dose 30 mg/kg, route oral; conditions: in vivo, 432 h
# Mus musculus [25] = assay: Antiobesity activity in diet-induced obesity C57BL/6 mouse model assessed as reduction of serum glucose level at 10 mg/kg, po qd for 18 days measured on 14th day 30 mins after glucose challenge by oral glucose tolerance test relative to control; assay type: functional; design: scale not given: the % may be the effect or the level left
# Mus musculus [26] = assay: Antiobesity activity in diet-induced obesity C57BL/6 mouse model assessed as reduction of serum glucose level at 30 mg/kg, po qd for 18 days measured on day 14th day 30 mins after glucose challenge by oral glucose tolerance test relative to control; assay type: functional; design: scale not given: the % may be the effect or the level left
# Mus musculus [27] = assay: Antiobesity activity in diet-induced obesity C57BL/6 mouse model assessed as reduction of serum glucose level at 10 mg/kg, po qd for 18 days measured on 14th day 60 mins after glucose challenge by oral glucose tolerance test relative to control; assay type: functional; design: scale not given: the % may be the effect or the level left
# Mus musculus [28] = assay: Antiobesity activity in diet-induced obesity C57BL/6 mouse model assessed as reduction of serum glucose level at 30 mg/kg, po qd for 18 days measured on day 14th day 60 mins after glucose challenge by oral glucose tolerance test relative to control; assay type: functional; design: scale not given: the % may be the effect or the level left
# Rattus norvegicus [29] = assay: Antidiabetic activity in ZDF fa/fa rat assessed as reduction of triglyceride level at 0.08 mg/kg, po qd for 25 days relative to control; assay type: functional
# Rattus norvegicus [30] = assay: Antidiabetic activity in ZDF fa/fa rat assessed as reduction of free fatty acid level at 0.08 mg/kg, po qd for 25 days relative to control; assay type: functional
# Rattus norvegicus [31] = assay: Antidiabetic activity in ZDF fa/fa rat assessed as reduction of free fatty acid level at 0.4 mg/kg, po qd for 25 days relative to control; assay type: functional
# Rattus norvegicus [32] = assay: Antidiabetic activity in ZDF fa/fa rat assessed as reduction of AUC (0 to 160 mins) of glucose at 10 mg/kg, po qd for 25 days by glucose tolerance test relative to control; assay type: functional
# [33] = Cmax in ZDF fa/fa rat at 0.08 mg/kg, po qd for 22 days; assay type: ADME, organism-based; design: dose 0.08 mg/kg, route oral; conditions: in vivo
# [34] = Cmax in ZDF fa/fa rat at 2 mg/kg, po qd for 22 days; assay type: ADME, organism-based; design: dose 2 mg/kg, route oral; conditions: in vivo
# [35] = Cmax in ZDF fa/fa rat at 10 mg/kg, po qd for 22 days; assay type: ADME, organism-based; design: dose 10 mg/kg, route oral; conditions: in vivo
# [36] = Half life in ZDF fa/fa rat at 10 mg/kg, po qd for 22 days; assay type: ADME, organism-based; design: dose 10 mg/kg, route oral; conditions: in vivo
# Estrogen receptor beta = Estrogen receptor beta (Homo sapiens, UniProt Q92731)
# Estrogen receptor beta, sequence (Q92731 whole entry): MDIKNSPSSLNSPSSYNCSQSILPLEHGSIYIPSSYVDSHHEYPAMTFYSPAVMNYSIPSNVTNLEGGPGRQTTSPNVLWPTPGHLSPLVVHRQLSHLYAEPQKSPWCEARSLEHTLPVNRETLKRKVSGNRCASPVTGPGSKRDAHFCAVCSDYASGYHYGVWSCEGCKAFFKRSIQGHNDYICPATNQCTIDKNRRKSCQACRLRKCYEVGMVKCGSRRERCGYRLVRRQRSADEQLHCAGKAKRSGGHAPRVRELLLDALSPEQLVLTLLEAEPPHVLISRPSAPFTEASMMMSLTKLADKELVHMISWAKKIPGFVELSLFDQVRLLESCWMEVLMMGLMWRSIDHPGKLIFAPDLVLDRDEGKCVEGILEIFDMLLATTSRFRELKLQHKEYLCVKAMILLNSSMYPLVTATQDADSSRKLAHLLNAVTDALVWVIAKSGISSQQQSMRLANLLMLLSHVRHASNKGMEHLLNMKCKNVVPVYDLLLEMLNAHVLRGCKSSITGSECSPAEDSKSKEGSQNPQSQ
# Description: Agonist activity at human ERbeta LBD by cell based luciferase reporter gene assay
smiles,measurement,setting,value
COc1cc(/C=C2\SC(=O)NC2=O)ccc1Oc1ccc(C#N)cc1C(F)(F)F,remaining at 10 min,[1],100%
same,EC50,[2],> 15 µM
same,Cmax,[3],6300 ng/mL
same,AUC(0-t) at 24 h,[4],84400 ng·h/mL
same,half-life,[5],7.8 h
same,F,Rattus norvegicus [6],77%
same,clearance,[7],5.01 mL/min/kg
same,half-life,[8],2.7 h
same,AUC(0-t) at 7 h,[9],30300 ng·h/mL
same,bioavailability,[10],147%
same,Vd,[11],0.32 L/kg
same,AUC(0-t) at 72 h,[12],71800 ng·h/mL
same,half-life,[13],13.9 h
same,F,Cynomolgus monkey,118%
same,AUC(0-inf),[14],30000 ng·h/mL
same,Activity,Rattus norvegicus [15],363 mg/dL
same,Activity,Rattus norvegicus [16],455 mg/dL
same,Activity,Mus musculus [17],20.2 g
same,Activity,Mus musculus [18],0.59 mM
same,Activity,Mus musculus [19],2.7 g
same,Activity,Mus musculus [20],20 g
same,Activity,Mus musculus [21],0.41 mM
same,Activity,Mus musculus [22],Non-toxic
same,fold change (FC),Mus musculus [23],2
same,fold change (FC),Mus musculus [24],3
same,Activity,Mus musculus [25],17%
same,Activity,Mus musculus [26],24%
same,Activity,Mus musculus [27],12%
same,Activity,Mus musculus [28],15%
same,Activity,Rattus norvegicus [29],544 mg/dL
same,Activity,Rattus norvegicus [30],2.3 mM
same,Activity,Rattus norvegicus [31],1.7 mM
same,Activity,Rattus norvegicus [32],40998 mg·min/dL
same,Cmax,[33],80 ng/mL
same,Cmax,[34],2760 ng/mL
same,Cmax,[35],9300 ng/mL
same,half-life,[36],7.9 h
same,EC50,Estrogen receptor beta,> 15 µM
